Blank lines part the entries; values can stand above or below the compound they belong to.
What was measured:
NF-κB pathway = assay: TNF-α assay in IFN-γ-differentiated, LPS-stimulated THP-1 cells (ELISA); format: cell-based; settings: Homo sapiens, 50 ng/mL LPS, 3 hours
Procedure: Monocytic THP-1 cells (ATCC: TIB-202) are maintained in accordance with the provider's instructions in RPMI media (Life Technologies, Cat #A10491-01); RPMI is supplemented with 10% heat inactivated fetal bovine serum (Hyclone Cat #SH30396.03). The cells are differentiated into macrophages by the addition of 25 ng/mL IFN-γ for 24 hours at 37° C./5% CO2. Media is exchanged with fresh media with no FBS. The cells are plated at 40,000 cells per well in 384-well flat-bottom cell culture plates (Costar 3764) containing compounds (added in 1:1000) in a 1:3.16 serial dilution series in DMSO and are incubated for 30 minutes at 37° C./5% CO2. The NF-κB pathway is activated with the addition of 50 ng/mL LPS and the cells are incubated for 3 hours at 37° C./5% CO2. At the end of the incubation period, supernatant (40 μL) is removed, and […] are monitored using an ELISA (Human TNF-α ELISA, R&D systems, Cat #DY210) according to the manufacturer's instructions.
The IC50 values are calculated from a plot of percentage of inhibition versus the inhibitor concentration by a logistics curve fit according to: Y=[Bottom+(Top−Bottom)]/(1+10^[(Log IC50−X)·Hill Slope], where Y is the % inhibition at the inhibitor concentration, X, “Bottom” is the lowest inhibition value, i.e. 0%, “Top” is the maximum inhibition value, i.e. 100%, and the “Hill Slope” describes the slope of the sigmoidal curve between the “Bottom” and “Top” values. The curve fitting was conducted with internally developed software.

NLRP3 inflammasome = NLRP3 inflammasome (Homo sapiens, UniProt Q96P20); assay: IL-1β assay in IFN-γ-differentiated, LPS-primed, ATP-activated THP-1 cells (ELISA); format: cell-based; settings: 50 ng/mL LPS priming, 2.5 mM ATP activation, 2 hours
Summary of the method: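 THP-1 cells differentiated with 25 ng/mL IFN-γ for 24 h, then primed with 50 ng/mL LPS for 24 h in serum-free medium. After 30 min compound preincubation (1:3.16 dilution series), inflammasome activated with 2.5 mM ATP for 2 h at 37 °C. Supernatant IL-1β measured by ELISA; IC50 from logistic fit of % inhibition.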

NLRP3 inflammasome, sequence (Q96P20 whole entry): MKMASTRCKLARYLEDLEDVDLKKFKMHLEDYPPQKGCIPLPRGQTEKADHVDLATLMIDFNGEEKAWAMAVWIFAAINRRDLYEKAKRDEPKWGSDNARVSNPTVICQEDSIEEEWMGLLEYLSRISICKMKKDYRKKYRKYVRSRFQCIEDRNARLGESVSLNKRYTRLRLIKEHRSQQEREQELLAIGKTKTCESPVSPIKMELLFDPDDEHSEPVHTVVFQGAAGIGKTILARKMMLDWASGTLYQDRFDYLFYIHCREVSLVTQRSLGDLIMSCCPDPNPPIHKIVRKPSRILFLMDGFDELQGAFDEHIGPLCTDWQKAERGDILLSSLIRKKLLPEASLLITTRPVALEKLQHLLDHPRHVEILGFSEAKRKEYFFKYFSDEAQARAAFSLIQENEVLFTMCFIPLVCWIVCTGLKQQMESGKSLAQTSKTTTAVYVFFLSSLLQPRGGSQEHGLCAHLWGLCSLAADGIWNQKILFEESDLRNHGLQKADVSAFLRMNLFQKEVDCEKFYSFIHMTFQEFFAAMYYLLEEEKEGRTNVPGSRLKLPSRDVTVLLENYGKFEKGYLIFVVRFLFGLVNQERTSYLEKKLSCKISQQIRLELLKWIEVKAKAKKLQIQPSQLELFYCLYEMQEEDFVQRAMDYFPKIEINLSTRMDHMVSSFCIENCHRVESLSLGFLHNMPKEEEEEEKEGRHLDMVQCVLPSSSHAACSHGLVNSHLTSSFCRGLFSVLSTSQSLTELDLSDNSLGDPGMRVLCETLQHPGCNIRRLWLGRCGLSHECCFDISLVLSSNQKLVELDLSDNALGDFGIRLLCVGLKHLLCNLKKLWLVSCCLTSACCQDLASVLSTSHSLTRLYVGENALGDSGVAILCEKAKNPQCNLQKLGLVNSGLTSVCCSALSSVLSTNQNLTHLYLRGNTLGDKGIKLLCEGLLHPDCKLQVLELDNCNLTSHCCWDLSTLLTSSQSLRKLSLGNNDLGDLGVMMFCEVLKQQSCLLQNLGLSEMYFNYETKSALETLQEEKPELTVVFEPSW

Structure (SMILES): Cc1nccc2c(-c3ccc(Cl)cc3)nnc(NC3CCCN(C)C3)c12 (stereo not drawn) [Example 76, 1-(4-chlorophenyl)-5-methyl-N-(1-methylpiperidin-3-yl)pyrido[3,4-d]pyridazin-4-amine]
IC50 (NF-κB pathway): > 30000 nM
IC50 (NLRP3 inflammasome): 178 nM

Structure (SMILES): COc1ccc(-c2nnc(N[C@@H]3CCCN(C)C3)c3ccnc(C)c23)c(O)c1 [Example 79, (R)-5-methoxy-2-(5-methyl-1-((1-methylpiperidin-3-yl)amino)pyrido[3,4-d]pyridazin-4-yl)phenol]
IC50 (NF-κB pathway): 24300 nM
IC50 (NLRP3 inflammasome): 5 nM

Structure (SMILES): COc1ccc(-c2nnc(N[C@@H]3CCCN(CCF)C3)c3cnccc23)cc1 [Example 84, (R)—N-(1-(2-fluoroethyl)piperidin-3-yl)-1-(4-methoxyphenyl)pyrido[3,4-d]pyridazin-4-amine]
IC50 (NF-κB pathway): > 30000 nM
IC50 (NLRP3 inflammasome): 79 nM

Structure (SMILES): Oc1ccccc1-c1nnc(N[C@@H]2CCCN(CCF)C2)c2cnccc12 [Example 86, (R)-2-(4-((1-(2-fluoroethyl)piperidin-3-yl)amino)pyrido[3,4-d]pyridazin-1-yl)phenol]
IC50 (NF-κB pathway): > 30000 nM
IC50 (NLRP3 inflammasome): 21 nM

Structure (SMILES): Clc1ccc(-c2nnc(NC3CCCN(C4CC4)C3)c3cnccc23)cc1 (stereo not drawn) [Example 88, 1-(4-chlorophenyl)-N-(1-cyclopropylpiperidin-3-yl)pyrido[3,4-d]pyridazin-4-amine]
IC50 (NF-κB pathway): > 30000 nM
IC50 (NLRP3 inflammasome): 8 nM

Structure (SMILES): Clc1ccc(-c2nnc(NC3CCCN(C4CC4)C3)c3ccncc23)cc1 (stereo not drawn) [Example 89, 4-(4-chlorophenyl)-N-(1-cyclopropylpiperidin-3-yl)pyrido[3,4-d]pyridazin-1-amine]
IC50 (NF-κB pathway): > 30000 nM
IC50 (NLRP3 inflammasome): 91 nM

Structure (SMILES): C[C@]1(O)C[C@@H](Nc2nnc(-c3ccc(Cl)cc3O)c3ccncc23)C1 [Example 95, cis-5-chloro-2-(4-((-3-hydroxy-3-methylcyclobutyl)amino)pyrido[3,4-d]pyridazin-1-yl)phenol]
IC50 (NF-κB pathway): > 30000 nM
IC50 (NLRP3 inflammasome): 10 nM

Structure (SMILES): Oc1cc(Cl)ccc1-c1nnc(NC23CCC(O)(CC2)C3)c2cnccc12 [Example 96, 4-((1-(4-chloro-2-hydroxyphenyl)pyrido[3,4-d]pyridazin-4-yl)amino)bicyclo[2.2.1]heptan-1-ol]
IC50 (NF-κB pathway): 26000 nM
IC50 (NLRP3 inflammasome): 5 nM

Structure (SMILES): CN1CCCC(Nc2nnc(-c3ccc(Cl)cc3)c3ccccc23)C1=O (stereo not drawn) [Example 111, 3-((4-(4-chlorophenyl)phthalazin-1-yl)amino)-1-methylpiperidin-2-one]
IC50 (NF-κB pathway): > 30000 nM
IC50 (NLRP3 inflammasome): 3780 nM

Structure (SMILES): CN1CCCC(Nc2nnc(-c3ccc(Cl)cc3)c3ccccc23)C1 (stereo not drawn) [Example 113, 4-(4-chlorophenyl)-N-(1-methylpiperidin-3-yl)phthalazin-1-amine]
IC50 (NF-κB pathway): > 30000 nM
IC50 (NLRP3 inflammasome): 47 nM

Structure (SMILES): C[C@]1(O)C[C@@H](Nc2nnc(-c3ccc(Cl)cc3)c3ccccc23)C1 [Example 118, cis-3-((4-(4-chlorophenyl)phthalazin-1-yl)amino)-1-methylcyclobutan-1-ol]
IC50 (NF-κB pathway): > 30000 nM
IC50 (NLRP3 inflammasome): 334 nM

Structure (SMILES): O[C@H]1C[C@@H](Nc2nnc(-c3ccc(Cl)cc3)c3ccccc23)C1 [Example 122, cis-3-((4-(4-chlorophenyl)phthalazin-1-yl)amino)cyclobutan-1-ol]
IC50 (NF-κB pathway): > 30000 nM
IC50 (NLRP3 inflammasome): 2300 nM

Structure (SMILES): COc1ccc(-c2nnc(NC3CCCN(C)C3)c3ccccc23)cc1 (stereo not drawn) [Example 123, 4-(4-methoxyphenyl)-N-(1-methylpiperidin-3-yl)phthalazin-1-amine]
IC50 (NF-κB pathway): > 30000 nM
IC50 (NLRP3 inflammasome): 276 nM

Structure (SMILES): COc1ccc(-c2nnc(N[C@H]3C[C@@](C)(O)C3)c3ccccc23)cc1 [Example 124, cis-3-((4-(4-methoxyphenyl)phthalazin-1-yl)amino)-1-methylcyclobutan-1-ol]
IC50 (NF-κB pathway): > 30000 nM
IC50 (NLRP3 inflammasome): 1290 nM

Structure (SMILES): OC12CCC(Nc3nnc(-c4ccc(Cl)cc4)c4ccccc34)(CC1)C2 [Example 127, 4-((4-(4-chlorophenyl)phthalazin-1-yl)amino)bicyclo[2.2.1]heptan-1-ol]
IC50 (NF-κB pathway): > 30000 nM
IC50 (NLRP3 inflammasome): 228 nM

Structure (SMILES): CN1CCC[C@@H](Nc2nnc(-c3ccc(Cl)cc3)c3ccccc23)C1 [Example 139, (R)-4-(4-chlorophenyl)-N-(1-methylpiperidin-3-yl)phthalazin-1-amine]
IC50 (NF-κB pathway): > 30000 nM
IC50 (NLRP3 inflammasome): 31 nM

Structure (SMILES): FCCN1CCCC(Nc2nnc(-c3ccc(Cl)cc3)c3ccccc23)C1 (stereo not drawn) [Example 140, 4-(4-chlorophenyl)-N-(1-(2-fluoroethyl)piperidin-3-yl)phthalazin-1-amine]
IC50 (NF-κB pathway): > 30000 nM
IC50 (NLRP3 inflammasome): 75 nM

Structure (SMILES): Clc1ccc(-c2nnc(NC3CCCN(C4CC4)C3)c3ccccc23)cc1 (stereo not drawn) [Example 144, 4-(4-chlorophenyl)-N-(1-cyclopropylpiperidin-3-yl)phthalazin-1-amine]
IC50 (NF-κB pathway): > 30000 nM
IC50 (NLRP3 inflammasome): 43 nM

Second part, the compound after the results:

IC50 (NF-κB pathway): > 30000 nM
IC50 (NLRP3 inflammasome): 58 nM
Structure (SMILES): CN1CCC[C@@H](Nc2nnc(-c3ccc(Cl)cc3)c3ccncc23)C1 [Example 64, (R)-1-(4-chlorophenyl)-N-(1-methylpiperidin-3-yl)pyrido[3,4-d]pyridazin-4-amine]

IC50 (NF-κB pathway): > 30000 nM
IC50 (NLRP3 inflammasome): 552 nM
Structure (SMILES): CN1CCC[C@@H](Nc2nnc(-c3ccc(Cl)cc3)c3cnccc23)C1 [Example 67, (R)-4-(4-chlorophenyl)-N-(1-methylpiperidin-3-yl)pyrido[3,4-d]pyridazin-1-amine]

IC50 (NF-κB pathway): > 30000 nM
IC50 (NLRP3 inflammasome): 46 nM
Structure (SMILES): CN1CCCC(Nc2nnc(-c3ccc(Cl)cc3F)c3ccncc23)C1 (stereo not drawn) [Example 68, 1-(4-chloro-2-fluorophenyl)-N-(1-methylpiperidin-3-yl)pyrido[3,4-d]pyridazin-4-amine]

IC50 (NF-κB pathway): 9550 nM
IC50 (NLRP3 inflammasome): 46 nM
Structure (SMILES): CN1CCC[C@@H](Nc2nnc(-c3ccc(Cl)cc3F)c3ccncc23)C1 [Example 71, (R)-1-(4-chloro-2-fluorophenyl)-N-(1-methylpiperidin-3-yl)pyrido[3,4-d]pyridazin-4-amine]

IC50 (NF-κB pathway): > 30000 nM
IC50 (NLRP3 inflammasome): 52 nM
Structure (SMILES): COc1ccc(-c2nnc(NC3CCCN(C)C3)c3cnccc23)cc1 (stereo not drawn) [Example 72, 1-(4-methoxyphenyl)-N-(1-methylpiperidin-3-yl)pyrido[3,4-d]pyridazin-4-amine]

IC50 (NF-κB pathway): > 30000 nM
IC50 (NLRP3 inflammasome): 270 nM
Structure (SMILES): COc1ccc(-c2nnc(NC3CCCN(C)C3)c3ccncc23)cc1 (stereo not drawn) [Example 73, 4-(4-methoxyphenyl)-N-(1-methylpiperidin-3-yl)pyrido[3,4-d]pyridazin-1-amine]

IC50 (NF-κB pathway): > 30000 nM
IC50 (NLRP3 inflammasome): 4 nM
Structure (SMILES): CN1CCC[C@@H](Nc2nnc(-c3ccc(Cl)cc3O)c3ccncc23)C1 [Example 74, (R)-5-chloro-2-(4-((1-methylpiperidin-3-yl)amino)pyrido[3,4-d]pyridazin-1-yl)phenol]

IC50 (NF-κB pathway): > 30000 nM
IC50 (NLRP3 inflammasome): 3 nM
Structure (SMILES): CN1CCC[C@@H](Nc2nnc(-c3ccc(Cl)cc3O)c3cnccc23)C1 [Example 75, (R)-5-chloro-2-(1-((1-methylpiperidin-3-yl)amino)pyrido[3,4-d]pyridazin-4-yl)phenol]

IC50 (NF-κB pathway): > 30000 nM
IC50 (NLRP3 inflammasome): 36 nM
Structure (SMILES): Cc1cc2c(-c3ccc(Cl)cc3)nnc(NC3CCCN(C)C3)c2cn1 (stereo not drawn) [Example 80, 1-(4-chlorophenyl)-7-methyl-N-(1-methylpiperidin-3-yl)pyrido[3,4-d]pyridazin-4-amine]

IC50 (NF-κB pathway): > 30000 nM
IC50 (NLRP3 inflammasome): 67 nM
Structure (SMILES): Cc1cc2c(NC3CCCN(C)C3)nnc(-c3ccc(Cl)cc3)c2cn1 (stereo not drawn) [Example 81, 4-(4-chlorophenyl)-7-methyl-N-(1-methylpiperidin-3-yl)pyrido[3,4-d]pyridazin-1-amine]

IC50 (NF-κB pathway): > 10000 nM
IC50 (NLRP3 inflammasome): 95 nM
Structure (SMILES): COc1cc2c(NC3CCCN(C)C3)nnc(-c3ccc(Cl)cc3)c2cn1 (stereo not drawn) [Example 82, 4-(4-chlorophenyl)-7-methoxy-N-(1-methylpiperidin-3-yl)pyrido[3,4-d]pyridazin-1-amine]

IC50 (NF-κB pathway): > 30000 nM
IC50 (NLRP3 inflammasome): 82 nM
Structure (SMILES): COc1cc2c(-c3ccc(Cl)cc3)nnc(NC3CCCN(C)C3)c2cn1 (stereo not drawn) [Example 83, 1-(4-chlorophenyl)-7-methoxy-N-(1-methylpiperidin-3-yl)pyrido[3,4-d]pyridazin-4-amine]

IC50 (NF-κB pathway): > 30000 nM
IC50 (NLRP3 inflammasome): 2 nM
Structure (SMILES): Oc1cc(Cl)ccc1-c1nnc(N[C@@H]2CCCN(CCF)C2)c2cnccc12 [Example 85, (R)-5-chloro-2-(4-((1-(2-fluoroethyl)piperidin-3-yl)amino)pyrido[3,4-d]pyridazin-1-yl)phenol]

IC50 (NF-κB pathway): > 30000 nM
IC50 (NLRP3 inflammasome): 33 nM
Structure (SMILES): COc1ccc(-c2nnc(N[C@@H]3CCCN(CCF)C3)c3cnccc23)c(F)c1 [Example 87, (R)-1-(2-fluoro-4-methoxyphenyl)-N-(1-(2-fluoroethyl)piperidin-3-yl)pyrido[3,4-d]pyridazin-4-amine]

IC50 (NF-κB pathway): > 30000 nM
IC50 (NLRP3 inflammasome): 30 nM
Structure (SMILES): CN1CCC[C@@H](Nc2nnc(-c3ccc(F)cc3O)c3ccncc23)C1 [Example 93, (R)-5-fluoro-2-(4-((1-methylpiperidin-3-yl)amino)pyrido[3,4-d]pyridazin-1-yl)phenol]
